According to US9833497B2, “Human originated EGF domain proteins and use of the same” (CHENGDU SOURCEBIO LIMITED-LIABILITY COMPANY, priority 2013, dated 2017):

Columns and labels:
Format in all cases: cell-based
Pseudomonas aeruginosa = experiment: MIC against Gram-negative bacteria: Pseudomonas aeruginosa; settings: 5×10^5 CFU/mL
How it was run: (§1)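 The recombinant human-originated EGF domain proteins were serially diluted two-fold against bacteria at 5×10^5 CFU/mL in LB medium. After shaken incubation at 37° C, the lowest concentration with no bacterial growth was recorded as the MIC.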

Serratia marcescens = experiment: MIC against Gram-negative bacteria: Serratia marcescens; settings: 5×10^5 CFU/mL
How it was run: as §1

Proteus vulgaris = experiment: MIC against Gram-negative bacteria: Proteus vulgaris; settings: 5×10^5 CFU/mL
How it was run: as §1

Klebsiella pneumonia = experiment: MIC against Gram-negative bacteria: Klebsiella pneumonia; settings: 5×10^5 CFU/mL
How it was run: as §1

E. coli DH5α = experiment: Antibacterial activity: MIC and growth curve against E. coli DH5α in 96-well plate; settings: minimal inhibitory concentration against E. coli DH5α; 96-well plate, 5×10^5 CFU/mL, 37° C., judged after 8 h
How it was run: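 MIC taken as lowest protein level with no bacterial growth, tracked by A600 every 30 min during 37 °C, 175 rpm culture. Two-fold protein series 50-12.5 μg/mL final, triplicate wells, against 5×10^5 CFU/mL of LB-washed mid-log cells.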

Citrobacter diversus = experiment: MIC against Gram-negative bacteria: Citrobacter diversus; settings: 5×10^5 CFU/mL
How it was run: as §1

Moraxella catarrhalis = experiment: MIC against Gram-negative bacteria: Moraxella catarrhalis; settings: 5×10^5 CFU/mL
How it was run: as §1

E. coli BL21 = experiment: MIC against Gram-negative bacteria: E. coli BL21; settings: 5×10^5 CFU/mL
How it was run: as §1

Proteus mirabilis = experiment: MIC against Gram-negative bacteria: Proteus mirabilis; settings: 5×10^5 CFU/mL
How it was run: as §1

Aeromonas hydrophila = experiment: MIC against Gram-negative bacteria: Aeromonas hydrophila; settings: 5×10^5 CFU/mL
How it was run: as §1

Enterobacter cloacae = experiment: MIC against Gram-negative bacteria: Enterobacter cloacae; settings: 5×10^5 CFU/mL
How it was run: as §1

[1] = E. coli BL21, 10 h cultivation at 37° C.
[2] = P. aeruginosa, 10 h cultivation at 37° C.
[3] = S. marcescens, 10 h cultivation at 37° C.
[4] = P. vulgaris, 10 h cultivation at 37° C.
[5] = K. pneumonia, 10 h cultivation at 37° C.
[6] = C. diversus, 10 h cultivation at 37° C.
[7] = M. catarrhalis, 10 h cultivation at 37° C.
[8] = P. mirabilis, 10 h cultivation at 37° C.
[9] = A. hydrophila, 10 h cultivation at 37° C.
[10] = E. cloacae, 10 h cultivation at 37° C.
[11] = Pseudomonas aeruginosa, 96-well plate, 37° C., 10 h
[12] = Serratia marcescens, 96-well plate, 37° C., 10 h
[13] = Proteus vulgaris, 96-well plate, 37° C., 10 h
[14] = Klebsiella pneumonia, 96-well plate, 37° C., 10 h
[15] = Citrobacter diversus, 96-well plate, 37° C., 10 h
[16] = Moraxella catarrhalis, 96-well plate, 37° C., 10 h
[17] = E. coli BL21, 96-well plate, 37° C., 10 h
[18] = Proteus mirabilis, 96-well plate, 37° C., 10 h
[19] = Aeromonas hydrophila, 96-well plate, 37° C., 10 h
[20] = Enterobacter cloacae, 96-well plate, 37° C., 10 h

| Substance | MIC (E. coli DH5α) | MIC (μg/mL) P. aeruginosa (Pseudomonas aeruginosa; [2]) | MIC (μg/mL) S. marcescens (Serratia marcescens; [3]) | MIC (μg/mL) P. vulgaris (Proteus vulgaris; [4]) | MIC (μg/mL) K. pneumonia (Klebsiella pneumonia; [5]) | MIC (μg/mL) C. diversus (Citrobacter diversus; [6]) | MIC (μg/mL) M. catarrhalis (Moraxella catarrhalis; [7]) | MIC (μg/mL) E. coli BL21 (E. coli BL21; [1]) | MIC (μg/mL) P. mirabilis (Proteus mirabilis; [8]) | MIC (μg/mL) A. hydrophila (Aeromonas hydrophila; [9]) | MIC (μg/mL) E. cloacae (Enterobacter cloacae; [10]) | MIC (μg/mL) P. aeruginosa (Pseudomonas aeruginosa; [11]) | MIC (μg/mL) S. marcescens (Serratia marcescens; [12]) | MIC (μg/mL) P. vulgaris (Proteus vulgaris; [13]) | MIC (μg/mL) K. pneumonia (Klebsiella pneumonia; [14]) | MIC (μg/mL) C. diversus (Citrobacter diversus; [15]) | MIC (μg/mL) M. catarrhalis (Moraxella catarrhalis; [16]) | MIC (μg/mL) E. coli BL21 (E. coli BL21; [17]) | MIC (μg/mL) P. mirabilis (Proteus mirabilis; [18]) | MIC (μg/mL) A. hydrophila (Aeromonas hydrophila; [19]) | other results |
| --- | --- | --- | --- | --- | --- | --- | --- | --- | --- | --- | --- | --- | --- | --- | --- | --- | --- | --- | --- | --- | --- |
| PRT1403 (SVVECPRNCHGNGECVSGTCHCFPGFLGPDCS; listed as Homo sapiens) | 50 µg/mL |  |  |  |  |  |  |  |  |  |  |  |  |  |  |  |  |  |  |  | MIC against P. aeruginosa (Pseudomonas aeruginosa; Pseudomonas aeruginosa, 10 h cultivation at 37° C.): 50 µg/mL; MIC against S. marcescens (Serratia marcescens; Serratia marcescens, 10 h cultivation at 37° C.): 50 µg/mL; MIC against P. vulgaris (Proteus vulgaris; Proteus vulgaris, 10 h cultivation at 37° C.): 12.5 µg/mL; MIC against K. pneumonia (Klebsiella pneumonia; Klebsiella pneumonia, 10 h cultivation at 37° C.): 12.5 µg/mL; MIC against C. diversus (Citrobacter diversus; Citrobacter diversus, 10 h cultivation at 37° C.): 50 µg/mL; MIC against M. catarrhalis (Moraxella catarrhalis; Moraxella catarrhalis, 10 h cultivation at 37° C.): 12.5 µg/mL; MIC against E. coli BL21 (E. coli BL21; [1]): 12.5 µg/mL; MIC against P. mirabilis (Proteus mirabilis; Proteus mirabilis, 10 h cultivation at 37° C.): 50 µg/mL; MIC against A. hydrophila (Aeromonas hydrophila; Aeromonas hydrophila, 10 h cultivation at 37° C.): 25 µg/mL; MIC against E. cloacae (Enterobacter cloacae; Enterobacter cloacae, 10 h cultivation at 37° C.): 25 µg/mL |
| PRT804 (HGAHCELRCPCQNGGTCHHITGECACPPGWTGAVCA; listed as Homo sapiens) | 12.5 µg/mL | 12.5 µg/mL | 50 µg/mL | 25 µg/mL | 50 µg/mL | 12.5 µg/mL | 50 µg/mL | 50 µg/mL | 12.5 µg/mL | 12.5 µg/mL | 12.5 µg/mL |  |  |  |  |  |  |  |  |  |  |
| PRT485 (QADPCKFLACGEFAQCVKNERTEEAECRCKPGYDSQGSL; listed as Homo sapiens) | 50 µg/mL |  |  |  |  |  |  |  |  |  |  |  |  |  |  |  |  |  |  |  | MIC against P. aeruginosa (Pseudomonas aeruginosa; 96-well plate, 37° C., 10 h): 50 µg/mL; MIC against S. marcescens (Serratia marcescens; 96-well plate, 37° C., 10 h): 50 µg/mL; MIC against P. vulgaris (Proteus vulgaris; 96-well plate, 37° C., 10 h): 25 µg/mL; MIC against K. pneumonia (Klebsiella pneumonia; 96-well plate, 37° C., 10 h): 25 µg/mL; MIC against C. diversus (Citrobacter diversus; 96-well plate, 37° C., 10 h): 50 µg/mL; MIC against M. catarrhalis (Moraxella catarrhalis; 96-well plate, 37° C., 10 h): 25 µg/mL; MIC against E. coli BL21 (E. coli BL21; 96-well plate, 37° C., 10 h): 12.5 µg/mL; MIC against P. mirabilis (Proteus mirabilis; 96-well plate, 37° C., 10 h): 12.5 µg/mL; MIC against A. hydrophila (Aeromonas hydrophila; 96-well plate, 37° C., 10 h): 25 µg/mL; MIC against E. cloacae (Enterobacter cloacae; 96-well plate, 37° C., 10 h): 12.5 µg/mL |
| PRT826 (FGVGCEHTCSCRNGGLCHASNGSCSCGLGWTGRHCE; listed as Homo sapiens) | 12.5 µg/mL | 25 µg/mL | 12.5 µg/mL | 12.5 µg/mL | 100 µg/mL | 12.5 µg/mL | 25 µg/mL | 50 µg/mL | 12.5 µg/mL | 12.5 µg/mL | 50 µg/mL |  |  |  |  |  |  |  |  |  |  |
| PRT112 (DINECTDFVDVPCSHFCNNFIGGYFCSCPPEYFLHDDMKNCG; listed as Homo sapiens) | 50 µg/mL |  |  |  |  |  |  |  |  |  |  | 50 µg/mL | 50 µg/mL | 12.5 µg/mL | 12.5 µg/mL | 12.5 µg/mL | 12.5 µg/mL | 12.5 µg/mL | 50 µg/mL | 12.5 µg/mL | MIC (μg/mL) E. cloacae (Enterobacter cloacae; [20]): 12.5 µg/mL |
| PRT72 (NKLDLPCPRGWWGNPVCGPCHCAVSKGFDPDCN; listed as Homo sapiens) | 12.5 µg/mL |  |  |  |  |  |  |  |  |  |  | 25 µg/mL | 100 µg/mL | 25 µg/mL | 12.5 µg/mL | 12.5 µg/mL | 12.5 µg/mL | 12.5 µg/mL | 12.5 µg/mL | 12.5 µg/mL | MIC (μg/mL) E. cloacae (Enterobacter cloacae; [20]): 25 µg/mL |
